Experimental data published in patent US20120220554A1, “Combretastatins for Prevention of Posterior Capsule Opacification” (OXIGENE, INC., priority 2010, published 2012).

Legend:
[1] = tested on: polymerized tubulin in BMI-immortalized bovine lens epithelial (BIE) cells; experiment: Dimer/polymer tubulin extraction and anti-tubulin western blot in BIE cells; format: cell-based; details: single 30 min treatment with 1 μM CA4P, at 30 min after start and up to 24 h after end of exposure (FIG. 4)
Protocol: BMI-immortalized bovine lens epithelial (BIE) cells, on plastic, and primary bovine lens epithelial cells, on their original in vivo basement membrane, (the eye lens capsule), were cultured in 10% fetal calf serum (FCS)-supplemented medium at 37° C. prior to 30 min exposure to 1 μM CA4P, after which they were returned to 10% FCS-supplemented medium. The relatively short exposure was chosen to approximate the duration of a cataract surgery procedure. At a range of time points following exposure, cells were subjected to cell viability assay (MTT-based assay, PROMEGA, UK), immunoblotting or immunofluorescence.
BMI-immortalized bovine lens epithelial cells (BIE cell line, produced in Roy Quinlan's Laboratory, University of Durham, UK), were grown at 37° C., 5% CO2, in 10 cm diameter Petri dishes in 10% fetal calf serum (FCS)-supplemented tissue culture medium (Sigma-Aldrich, UK). When nearing confluence, they were exposed to 1 μM combretastatin A 4-phosphate (CA4P) (OXiGENE, UK) diluted in 10% FCS-supplemented medium for 30 min, after which the cells were returned to 10% FCS-supplemented medium. Immediately after the end of CA4P exposure, cells were extracted to assess the proportion of dimer/polymer tubulin, as described in Lieuvin et al., 1994 (J. Cell Biology 124 (6):985-996). […]
The proportion of dimer/polymer tubulin was assessed by western blotting. […]

BIE cells = experiment: MTT-based viable cell number assay in BIE cells; set-up: species or system bovine; details: single 30 min treatment with 1 μM CA4P; over 72 h following treatment (FIG. 6)
Protocol: BMI-immortalized bovine lens epithelial cells (BIE cell line, produced in Roy Quinlan's Laboratory, University of Durham, UK), were seeded onto 12-well tissue culture plates in 10% fetal calf serum (FCS)-supplemented tissue culture medium (Sigma-Aldrich, UK) and kept at 37° C., 5% CO2 overnight. […] Viable cell number was assayed immediately and at 24 h, 48 h and 72 h after the end of exposure, using an MTT-based colorimetric assay (CellTiter95® Aqueous non-radioactive cell proliferation assay, Promega, UK), according to manufacturer's instructions. Briefly, the original cell culture medium was discarded from all wells and replaced by 500 µL of fresh medium, to which was added 100 µL of kit reagent. The wells were then returned to 37° C., 5% CO2 for 2 h 30 in the dark, after which […] were transferred from each well into a 96-well plate, which was read at 492 nm absorbance on an Anthos Lucy I (Anthos Labtech Instruments, Germany). The absorbance values were converted to cell numbers using standard curves specific to lens epithelial cells (determined in Roy Quinlan's laboratory, University of Durham, UK), and the viable cell numbers obtained were averaged with standard deviation. Significant differences in the values obtained between control and treated cells at different timepoints were assessed using an independent, two-tailed t-test.

Phosphorylated p38 = Phosphorylated p38 level; format: cell-based, bovine; details: CA4P treatment (data not shown)
Protocol: (§1) Phospho-Erk ½ levels were elevated immediately after the end of CA4P exposure in both control and treated cells and decreased 1 h after the end of CA4P exposure in both control and treated cells (FIG. 7). […] Therefore, it could be hypothesized that, in primary cells, a general stress response due to dissection will mask CA4P's effect on Erk phosphorylation. Phosphorylated p38 and JNK levels were not affected by CA4P treatment (data not shown).

Phosphorylated JNK = Phosphorylated JNK level; format: cell-based, bovine; details: CA4P treatment (data not shown)
Protocol: as §1

## COc1ccc(/C=C\c2cc(OC)c(OC)c(OC)c2)cc1OP(=O)(O)O [CA4P, combretastatin A-4 phosphate]
[1]
  polymerized tubulin (western blot): loss of polymerized tubulin
BIE cells
  number of BIE cells (viable cell number, MTT): steady reduction in the number of BIE cells
Phosphorylated p38
  Phosphorylated p38 levels: not affected
Phosphorylated JNK
  Phosphorylated JNK levels: not affected
